Reference: patent US9452986B2, “6-heteroaryloxy- or 6-aryloxy-quinoline-2-carboxamides and method of use” (AbbVie Inc., priority 2014, dated 2016)
Where two headings read alike, the source gives them in different places.

Molecular target: recombinant human Nav1.7 (Homo sapiens (Human), UniProt Q15858)
Assay: FRET-based membrane potential assay, recombinant human sodium channel Nav1.7
Type: cell-based
Conditions: read-out: FRET-Membrane Potential Nav1.7 IC50
Protocol: FRET-Based Membrane Potential Assays.
Recombinant, Human Sodium Channel, Nav1.7.
On the day of the assay, medium was removed by aspiration, and cells were washed with assay buffer [HBSS (Invitrogen, Carlsbad, Calif.) containing 20 mM HEPES (Invitrogen, Carlsbad, Calif.)]. […] Cells were incubated for 40 minutes at room temperature in the dark. […] The cells were incubated for 90 minutes at room temperature in the dark. Fluorescence readings were made using a FLIPR®^TETRA (Molecular Devices, Sunnyvale Calif.) equipped with voltage-sensor probe optics. At the start of each experiment the optimal (EC80) concentration of depolarizing agent (veratridine) was determined by testing a dilution curve of assay buffer containing veratridine (Sigma-Aldrich, St. Louis, Mo.) and 1 mg/mL scorpion venom (SVqq, from Leiurus quinquestriatus; Sigma-Aldrich, St. Louis, Mo.). […] Test compounds in the daughter plate were diluted to (˜3×) solutions in assay buffer immediately before assaying. Using the FLIPR®^TETRA, 20 μL of the (3×) compound solutions were first added to the cells, then 20 μL of depolarizing solution (3×EC80 veratridine+SVqq) were added 3 minutes later to activate the channel. […] IC50 values were calculated from curve fits of the ratio data using a four-parameter logistic Hill equation (Accelrys Assay Explorer 3.3 Client, Accelrys, San Diego, Calif.) with percent inhibition plotted against compound concentration.

[1] = HEK293 cells stably expressing recombinant human Nav1.7, veratridine + scorpion venom depolarization

Chain of recombinant human Nav1.7 (Q15858 whole entry): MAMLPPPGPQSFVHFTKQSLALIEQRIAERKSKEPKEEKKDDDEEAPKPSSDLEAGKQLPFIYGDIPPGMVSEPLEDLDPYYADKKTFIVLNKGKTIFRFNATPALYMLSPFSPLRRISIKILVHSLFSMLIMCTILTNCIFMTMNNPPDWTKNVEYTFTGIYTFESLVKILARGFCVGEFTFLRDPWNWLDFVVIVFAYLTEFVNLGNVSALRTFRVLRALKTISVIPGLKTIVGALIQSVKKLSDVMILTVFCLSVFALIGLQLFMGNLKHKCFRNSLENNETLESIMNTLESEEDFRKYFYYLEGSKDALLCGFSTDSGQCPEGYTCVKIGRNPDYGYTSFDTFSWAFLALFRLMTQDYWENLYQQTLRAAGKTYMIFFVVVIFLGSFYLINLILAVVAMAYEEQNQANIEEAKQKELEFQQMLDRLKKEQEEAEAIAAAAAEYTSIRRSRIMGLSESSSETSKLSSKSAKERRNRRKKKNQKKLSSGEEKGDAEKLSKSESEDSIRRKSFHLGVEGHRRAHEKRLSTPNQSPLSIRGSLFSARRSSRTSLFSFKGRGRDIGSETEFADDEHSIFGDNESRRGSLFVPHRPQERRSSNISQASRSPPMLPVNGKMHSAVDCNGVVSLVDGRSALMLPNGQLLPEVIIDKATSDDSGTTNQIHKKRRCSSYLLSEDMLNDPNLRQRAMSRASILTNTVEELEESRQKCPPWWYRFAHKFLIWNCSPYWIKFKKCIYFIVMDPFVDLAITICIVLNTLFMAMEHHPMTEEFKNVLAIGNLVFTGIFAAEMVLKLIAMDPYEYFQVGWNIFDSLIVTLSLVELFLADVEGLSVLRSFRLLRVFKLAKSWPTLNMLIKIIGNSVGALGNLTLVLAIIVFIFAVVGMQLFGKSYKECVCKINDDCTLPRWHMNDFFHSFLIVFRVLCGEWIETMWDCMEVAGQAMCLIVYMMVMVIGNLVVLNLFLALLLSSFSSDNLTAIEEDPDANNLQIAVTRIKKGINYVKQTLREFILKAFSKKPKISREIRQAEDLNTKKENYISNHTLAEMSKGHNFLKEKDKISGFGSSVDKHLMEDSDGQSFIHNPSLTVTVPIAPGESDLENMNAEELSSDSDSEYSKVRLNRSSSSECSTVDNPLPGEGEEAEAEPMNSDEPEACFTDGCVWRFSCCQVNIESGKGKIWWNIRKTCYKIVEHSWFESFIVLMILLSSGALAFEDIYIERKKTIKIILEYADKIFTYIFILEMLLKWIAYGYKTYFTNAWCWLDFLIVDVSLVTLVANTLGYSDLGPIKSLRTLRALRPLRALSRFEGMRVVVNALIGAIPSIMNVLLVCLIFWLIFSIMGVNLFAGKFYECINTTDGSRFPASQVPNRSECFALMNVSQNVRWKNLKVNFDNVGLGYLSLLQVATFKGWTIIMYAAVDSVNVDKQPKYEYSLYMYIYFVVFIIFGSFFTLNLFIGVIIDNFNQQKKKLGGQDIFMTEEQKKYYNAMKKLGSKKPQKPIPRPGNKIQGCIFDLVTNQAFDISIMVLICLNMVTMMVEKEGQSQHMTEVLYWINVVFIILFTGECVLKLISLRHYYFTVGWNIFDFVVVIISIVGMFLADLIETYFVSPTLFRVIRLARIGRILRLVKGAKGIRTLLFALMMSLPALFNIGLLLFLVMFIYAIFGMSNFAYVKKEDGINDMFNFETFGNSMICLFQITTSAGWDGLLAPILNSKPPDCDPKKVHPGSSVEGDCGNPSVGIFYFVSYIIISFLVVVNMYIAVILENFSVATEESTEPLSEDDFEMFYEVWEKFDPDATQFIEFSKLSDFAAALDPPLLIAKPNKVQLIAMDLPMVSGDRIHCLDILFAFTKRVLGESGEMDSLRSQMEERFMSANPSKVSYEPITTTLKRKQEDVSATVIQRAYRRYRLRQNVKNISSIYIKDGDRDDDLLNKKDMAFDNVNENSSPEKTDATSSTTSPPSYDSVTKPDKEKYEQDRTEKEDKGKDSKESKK

## O=C(NC1COC1)c1ccc2cc(Oc3ccc(C(F)(F)F)nc3)ccc2n1 [Example 536, N-(oxetan-3-yl)-6-{[6-(trifluoromethyl)pyridin-3-yl]oxy}quinoline-2-carboxamide]
[1]
  IC50: 1.15 µM

## O=C(c1ccc2cc(Oc3ccc(C(F)(F)F)cn3)ccc2n1)N1CCN2C(=O)OCC2C1 (stereo not drawn) [Example 329, 7-[(6-{[5-(trifluoromethyl)pyridin-2-yl]oxy}quinolin-2-yl)carbonyl]hexahydro[1,3]oxazolo[3,4-a]pyrazin-3-one]
[1]
  IC50: 9.28 µM

## O=C(NCC1CS(=O)(=O)C1)c1ccc2cc(Oc3ccc(C(F)(F)F)cn3)ccc2n1 [Example 602, N-[(1,1-dioxidothietan-3-yl)methyl]-6-{[5-(trifluoromethyl)pyridin-2-yl]oxy}quinoline-2-carboxamide]
[1]
  IC50: 1.07 µM

## N#CC1CCN(C(=O)c2ccc3cc(Oc4ccc(C(F)(F)F)cn4)ccc3n2)CC1 [Example 474, 1-[(6-{[5-(trifluoromethyl)pyridin-2-yl]oxy}quinolin-2-yl)carbonyl]piperidine-4-carbonitrile]
[1]
  IC50: 9.1 µM

## N#Cc1ccc(Oc2ccc3nc(C(=O)NC4CCCOC4)ccc3c2)cc1 (stereo not drawn) [Example 116, 6-(4-cyanophenoxy)-N-(tetrahydro-2H-pyran-3-yl)quinoline-2-carboxamide]
[1]
  IC50: 1.03 µM

## CCN(CC)C(=O)CCNC(=O)c1ccc2cc(Oc3ccc(C(F)(F)F)cn3)ccc2n1 [Example 453, N-[3-(diethylamino)-3-oxopropyl]-6-{[5-(trifluoromethyl)pyridin-2-yl]oxy}quinoline-2-carboxamide]
[1]
  IC50: 0.405 µM

## O=C(c1ccc2cc(Oc3ccc(C(F)(F)F)cn3)ccc2n1)N1CCN(c2ccccn2)CC1 [Example 182, [4-(pyridin-2-yl)piperazin-1-yl](6-{[5-(trifluoromethyl)pyridin-2-yl]oxy}quinolin-2-yl)methanone]
[1]
  IC50: 0.69 µM

## O=C(c1ccc2cc(Oc3ccc(C(F)(F)F)cn3)ccc2n1)N1CCN(S(=O)(=O)c2ccccc2)CC1 [Example 178, [4-(phenylsulfonyl)piperazin-1-yl](6-{[5-(trifluoromethyl)pyridin-2-yl]oxy}quinolin-2-yl)methanone]
  IC50: 0.523 µM

## O=C(c1ccc2cc(Oc3ccc(C(F)(F)F)cn3)ccc2n1)N1CC(N2CCNCC2)C1 [Example 557, [3-(piperazin-1-yl)azetidin-1-yl](6-{[5-(trifluoromethyl)pyridin-2-yl]oxy}quinolin-2-yl)methanone]
  IC50: 16.7 µM

## CC(=O)N[C@@H]1CCN(C(=O)c2ccc3cc(Oc4ccc(C(F)(F)F)cn4)ccc3n2)C1 [Example 438, N-{(3R)-1-[(6-{[5-(trifluoromethyl)pyridin-2-yl]oxy}quinolin-2-yl)carbonyl]pyrrolidin-3-yl}acetamide]
  IC50: 12.5 µM

## O=C(c1ccc2cc(Oc3ccc(C(F)(F)F)cn3)ccc2n1)N1CCc2nc[nH]c(=O)c2C1 [Example 342, 6-[(6-{[5-(trifluoromethyl)pyridin-2-yl]oxy}quinolin-2-yl)carbonyl]-5,6,7,8-tetrahydropyrido[4,3-d]pyrimidin-4(3H)-one]
[1]
  IC50: 3.38 µM

## Cc1noc(C2CCCN(C(=O)c3ccc4cc(Oc5ccccn5)ccc4n3)C2)n1 (stereo not drawn) [Example 78, [3-(3-methyl-1,2,4-oxadiazol-5-yl)piperidin-1-yl][6-(pyridin-2-yloxy)quinolin-2-yl]methanone]
  IC50: > 20 µM

## C[C@@H]1CN(C(=O)c2ccc3cc(Oc4ccc(C(F)(F)F)cn4)ccc3n2)C[C@H]1O (relative stereo) [Example 306, [trans-3-hydroxy-4-methylpyrrolidin-1-yl](6-{[5-(trifluoromethyl)pyridin-2-yl]oxy}quinolin-2-yl)methanone]
[1]
  IC50: 14.8 µM

## O=C(c1ccc2cc(Oc3ccc(C(F)(F)F)cn3)ccc2n1)N1C[C@H](O)C[C@H]1CO [Example 300, [(2S,4R)-4-hydroxy-2-(hydroxymethyl)pyrrolidin-1-yl](6-{[5-(trifluoromethyl)pyridin-2-yl]oxy}quinolin-2-yl)methanone]
[1]
  IC50: > 20 µM

## CNC(=O)[C@@H]1CCCN1C(=O)c1ccc2cc(Oc3ccc(C(F)F)cn3)ccc2n1 [Example 455, 1-[(6-{[5-(difluoromethyl)pyridin-2-yl]oxy}quinolin-2-yl)carbonyl]-N-methyl-L-prolinamide]
  IC50: > 20 µM

## CC1CN(C(=O)c2ccc3cc(Oc4ccc(C(F)(F)F)cn4)ccc3n2)CC(C)N1 (stereo not drawn) [Example 552, (3,5-dimethylpiperazin-1-yl)(6-{[5-(trifluoromethyl)pyridin-2-yl]oxy}quinolin-2-yl)methanone]
[1]
  IC50: 0.615 µM

## O=C(c1ccc2cc(Oc3ccc(C(F)(F)F)cn3)ccc2n1)N1CC(F)(F)C1 [Example 508, (3,3-difluoroazetidin-1-yl)(6-{[5-(trifluoromethyl)pyridin-2-yl]oxy}quinolin-2-yl)methanone]
[1]
  IC50: 3.65 µM

## O=C(c1ccc2cc(Oc3ccc(C(F)(F)F)cn3)ccc2n1)N1CCC(N2CC(F)(F)C2)CC1 [Example 540, [4-(3,3-difluoroazetidin-1-yl)piperidin-1-yl](6-{[5-(trifluoromethyl)pyridin-2-yl]oxy}quinolin-2-yl)methanone]
  IC50: 4.03 µM

## O=C(N[C@H]1CS(=O)(=O)C[C@@H]1O)c1ccc2cc(Oc3ccc(C(F)(F)F)cn3)ccc2n1 [Example 425, N-[(3R,4R)-4-hydroxy-1,1-dioxidotetrahydrothiophen-3-yl]-6-{[5-(trifluoromethyl)pyridin-2-yl]oxy}quinoline-2-carboxamide]
  IC50: 9.09 µM

## CN(C)C(=O)N1CCN(C(=O)c2ccc3cc(Oc4ccc(C(F)(F)F)cn4)ccc3n2)CC1 [Example 187, N,N-dimethyl-4-[(6-{[5-(trifluoromethyl)pyridin-2-yl]oxy}quinolin-2-yl)carbonyl]piperazine-1-carboxamide]
[1]
  IC50: > 20 µM

## CCN(CC)C(=O)CCNC(=O)c1ccc2cc(Oc3ccc(C(F)(F)F)nc3)ccc2n1 [Example 524, N-[3-(diethylamino)-3-oxopropyl]-6-{[6-(trifluoromethyl)pyridin-3-yl]oxy}quinoline-2-carboxamide]
[1]
  IC50: 1.08 µM

## O=C(c1ccc2cc(Oc3ccc(C(F)(F)F)cn3)ccc2n1)N1CC2(CCNCC2)C1 [Example 232, 2,7-diazaspiro[3.5]non-2-yl(6-{[5-(trifluoromethyl)pyridin-2-yl]oxy}quinolin-2-yl)methanone]
[1]
  IC50: 17.4 µM

## O=C(c1ccc2cc(Oc3ccc(C(F)(F)F)cn3)ccc2n1)N1CCN2C[C@@H](F)C[C@@H]2C1 [Example 356, [(7S,8aR)-7-fluorohexahydropyrrolo[1,2-a]pyrazin-2(1H)-yl](6-{[5-(trifluoromethyl)pyridin-2-yl]oxy}quinolin-2-yl)methanone]
  IC50: 3.36 µM

## C=CCN(C)C(=O)c1ccc2cc(Oc3ccc(C(F)(F)F)cn3)ccc2n1 [Example 366, N-allyl-N-methyl-6-{[5-(trifluoromethyl)pyridin-2-yl]oxy}quinoline-2-carboxamide]
[1]
  IC50: 3.18 µM

## N#CCCN1CCN(C(=O)c2ccc3cc(Oc4ccc(C(F)(F)F)cn4)ccc3n2)CC1 [Example 473, 3-{4-[(6-{[5-(trifluoromethyl)pyridin-2-yl]oxy}quinolin-2-yl)carbonyl]piperazin-1-yl}propanenitrile]
[1]
  IC50: 16.2 µM

## NC(=O)C1CN(C(=O)c2ccc3cc(Oc4ccc(C(F)(F)F)cn4)ccc3n2)CCN1 (stereo not drawn) [Example 402, 4-[(6-{[5-(trifluoromethyl)pyridin-2-yl]oxy}quinolin-2-yl)carbonyl]piperazine-2-carboxamide]
[1]
  IC50: 9.07 µM

## C[C@H](O)CNC(=O)c1ccc2cc(Oc3ccc(C(F)(F)F)cn3)ccc2n1 [Example 410, N-[(2S)-2-hydroxypropyl]-6-{[5-(trifluoromethyl)pyridin-2-yl]oxy}quinoline-2-carboxamide]
  IC50: 0.557 µM

## O=C(c1ccc2cc(Oc3ccc(C(F)(F)F)nn3)ccc2n1)N1CCNCC1 [Example 246, piperazin-1-yl(6-{[6-(trifluoromethyl)pyridazin-3-yl]oxy}quinolin-2-yl)methanone]
[1]
  IC50: 19.8 µM

## COCCN(CCOC)C(=O)c1ccc2cc(Oc3ccc(C(F)(F)F)cn3)ccc2n1 [Example 379, N,N-bis(2-methoxyethyl)-6-{[5-(trifluoromethyl)pyridin-2-yl]oxy}quinoline-2-carboxamide]
[1]
  IC50: 3.39 µM

## Cc1c(S(=O)(=O)N2CCN(C(=O)c3ccc4cc(Oc5ccc(C(F)(F)F)cn5)ccc4n3)CC2)cnn1C [Example 390, {4-[(1,5-dimethyl-1H-pyrazol-4-yl)sulfonyl]piperazin-1-yl}(6-{[5-(trifluoromethyl)pyridin-2-yl]oxy}quinolin-2-yl)methanone]
[1]
  IC50: 2.34 µM

## O=C(c1ccc2cc(Oc3ccc(C(F)(F)F)cn3)ccc2n1)N1CCNCC(O)C1 (stereo not drawn) [Example 407, (6-hydroxy-1,4-diazepan-1-yl)(6-{[5-(trifluoromethyl)pyridin-2-yl]oxy}quinolin-2-yl)methanone]
[1]
  IC50: 3.81 µM

## N#Cc1ccc(Oc2ccc3nc(C(=O)N[C@H]4CC[C@H](O)CC4)ccc3c2)cc1 [Example 125, 6-(4-cyanophenoxy)-N-(trans-4-hydroxycyclohexyl)quinoline-2-carboxamide]
[1]
  IC50: 3.46 µM

## CN1CCC(NC(=O)c2ccc3cc(Oc4ccc(C(F)(F)F)cn4)ccc3n2)C1=O (stereo not drawn) [Example 587, N-(1-methyl-2-oxopyrrolidin-3-yl)-6-{[5-(trifluoromethyl)pyridin-2-yl]oxy}quinoline-2-carboxamide]
[1]
  IC50: 1.02 µM
